How the values were obtained:
human blood [1] = experiment: Fluid phase thrombin clotting time, alexidine versus chlorhexidine (Example 4); format: biochemical; conditions: for clotting time: 6.25 ug/mL; for Thrombin Clotting Time in whole blood: replicates 1-5
Procedure: The following provides a side-by-side comparison of alexidine with chlorhexidine. Fluid phase experiments were conducted to compare the influences of alexidine and chlorhexidine on thrombin clotting time (Table 6). […] The reaction mixtures contained freshly drawn human blood, alexidine or chlorhexidine as indicated, and exogenously added thrombin. The experiment was repeated five times, as indicated by replicates 1-5. The concentrations of alexidine or chlorhexidine that were used in the experiments were zero ug/mL (baseline), 3.125, 6.25, 12.5, 25, 50, or 100 ug/mL, as indicated. […] This dramatic difference was also observed when higher concentrations of antimicrobials were used in the clotting reactions.

human blood [2] = experiment: Thrombin clotting time in whole blood, alexidine solutions (Example 1); format: biochemical; conditions: partial clotting
Procedure: Solutions of varying alexidine concentrations (50-300 micrograms/mL) were incubated in individual test tubes, each containing 0.50 mL of human blood. The human blood was supplemented with 3.8% sodium citrate. The incubation was for 1 hour on a gyratory shaker set at 24 rpm and 37 degrees C. After 1 hour, 10 microliters of 500 Units/mL thrombin, and 60 microliters of 200 mM CaCl2 was added to each of the incubating blood samples. Blood clotting time was then measured using a stop watch. Table 1 discloses the results.

[3] = background statement; cited from earlier work

Structure (SMILES) | clotting time (human blood [1]) | Thrombin Clotting Time in whole blood (human blood [1]; 12.5 μg/mL) [h] | Thrombin Clotting Time in whole blood (human blood [1]; 25 μg/mL) [h] | Thrombin Clotting Time in whole blood (human blood [1]; 50 μg/mL) [h] | Thrombin Clotting Time in whole blood (human blood [1]; 100 μg/mL) [h] | potency in inhibiting blood clotting relative to chlorhexidine (human blood [1]; thrombin clotting time, fluid phase) | Thrombin Clotting Time in whole blood (human blood [2]; 0.2 mg/mL alexidine) | Thrombin Clotting Time in whole blood (human blood [2]; 0.3 mg/mL alexidine) | solubility in water [3]
CCCCC(CC)CNC(=N)NC(=N)NCCCCCCNC(=N)NC(=N)NCC(CC)CCCC (stereo not shown) [alexidine] | about five | >24 | >24 | >24 | >24 | four times more potent | Greater than 72 hours (partial clotting) | Greater than 72 hours (partial clotting) | relatively low solubility in water
N=C(NCCCCCCNC(=N)NC(=N)Nc1ccc(Cl)cc1)NC(=N)Nc1ccc(Cl)cc1.O=C(O)[C@H](O)[C@@H](O)[C@H](O)[C@H](O)CO.O=C(O)[C@H](O)[C@@H](O)[C@H](O)[C@H](O)CO [CHG, chlorhexidine gluconate] |  |  |  |  |  |  |  |  | highly soluble in water
[H]/N=C(\N/C(=N/[H])NCCCCCCNC(=N)NC(=N)Nc1ccc(Cl)cc1)Nc1ccc(Cl)cc1 [chlorhexidine] | about thirty |  |  | >24 | >24 |  |  |  | 
